The target of experiment [1] is T1, CCKB receptor (Mus musculus, UniProt P56481).
T1 construct: The cortex was dissected, weighed and homogenised in 40 ml ice-cold buffer; tissue Charles River (animals); host or cells: cerebral cortex of male CD1 mice, membranes
T1 sequence (P56481 1-453): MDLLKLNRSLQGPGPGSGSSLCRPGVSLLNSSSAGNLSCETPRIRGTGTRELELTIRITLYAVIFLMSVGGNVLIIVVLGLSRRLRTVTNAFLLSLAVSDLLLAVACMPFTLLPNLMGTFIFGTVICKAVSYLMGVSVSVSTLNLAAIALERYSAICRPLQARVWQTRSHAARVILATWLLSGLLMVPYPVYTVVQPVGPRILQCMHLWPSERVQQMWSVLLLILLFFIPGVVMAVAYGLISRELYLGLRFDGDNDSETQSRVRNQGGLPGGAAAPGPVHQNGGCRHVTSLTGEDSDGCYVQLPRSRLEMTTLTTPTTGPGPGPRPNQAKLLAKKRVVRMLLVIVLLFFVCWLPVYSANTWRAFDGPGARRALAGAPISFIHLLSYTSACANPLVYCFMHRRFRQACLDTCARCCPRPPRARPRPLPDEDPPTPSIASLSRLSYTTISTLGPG
The experiment can be described thus: radioligand binding assay at the CCKB receptor in mouse cortical membranes ([125I]-CCK8S). The settings on record: [125I]-CCK8S 200 pM, 150 min at 21±3° C.; for Ki: pH 7.2, read-out: pKi (Mouse cortex) (converted); for pKi (Mouse cortex): pH 7.2. The method, then:
The compounds of the examples were tested for binding at the CCKB receptor in mouse cortical membranes by means of a radioligand binding assay. The procedure was as follows:
The whole brains from male mice (CD1 22-25 g; Charles River) were removed and placed in ice-cold buffer (pH7.2@21±3° C.) of the following composition (mM); 10 HEPES, 130 NaCl, 4.7 KCl, 5 MgCl2, 1 EDTA and containing 0.25 g.1^-1 bacitracin. The cortex was dissected, weighed and homogenised in 40 ml ice-cold buffer using a Teflon-in-glass homogeniser. The homogenate was centrifuged at 39,800 g for 20 min at 4° C., the supernatant discarded and the pellet resuspended by homogenisation in fresh buffer. The homogenate was recentrifuged (39,800 g; 20 min @4° C.) and the final pellet was resuspended in HEPES buffer to give a tissue concentration of 2 mg.ml^-1 (original wet weight).
The membranes (400 μl) were incubated for 150 min at 21±3° C. in a final volume of 0.5 ml with HEPES buffer containing [^125 I]-CCK8S (0.05 ml; 200 pM NEN 2200 Ci.mmol^-1) and competing compound. Total and non-specific binding of [^125 I]-CCK8S were defined using 0.05 ml of buffer and 0.05 ml of […] L-365,260, respectively. The assay was terminated by rapid filtration through pre-soaked Whatman GF/B filters using a Brandell Cell harvester. The filters were washed (3×3 ml) with ice-cold 50 mM Tris-HCl (pH7.4@4° C.) and bound radioactivity determined by counting (1 min.) in a gamma-counter.

Experiment [2] has as its target T2, CCKA (Cavia porcellus, UniProt Q63931).
T2 construct: The pancreatata were removed from male guinea-pigs; from tissue; host or cells: pancreas of male Dunkin Hartley guinea pigs, membranes
T2 sequence (Q63931 1-430): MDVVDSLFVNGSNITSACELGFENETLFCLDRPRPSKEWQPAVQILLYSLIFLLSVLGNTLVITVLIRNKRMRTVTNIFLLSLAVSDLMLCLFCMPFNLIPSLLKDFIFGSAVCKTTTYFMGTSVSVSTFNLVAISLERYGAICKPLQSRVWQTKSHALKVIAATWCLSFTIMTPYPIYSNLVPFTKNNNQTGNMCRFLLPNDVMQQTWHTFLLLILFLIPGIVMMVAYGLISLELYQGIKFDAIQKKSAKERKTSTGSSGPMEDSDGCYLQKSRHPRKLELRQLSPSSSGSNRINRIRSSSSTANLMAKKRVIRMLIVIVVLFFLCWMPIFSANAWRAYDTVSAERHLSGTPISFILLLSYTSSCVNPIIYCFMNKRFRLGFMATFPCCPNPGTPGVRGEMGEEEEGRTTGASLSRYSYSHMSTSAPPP
In words: CCKA binding assay, guinea pig pancreas membranes ([125I]-CCK8(S)). The settings on record: [125I]-CCK8(S) 200 pM, 0.375 μM PD134,308, 150 min at 21±3° C.; for Ki: pH 7.2, read-out: pKi (Guinea pig pancreas) (converted); for pKi (Guinea pig pancreas): pH 7.2. As for the experimental part:
The compounds of the examples were also tested in a CCKA binding assay as follows:
The pancreatata were removed from male guinea-pigs (200-300 g; Dunkin Hartley) and placed in ice-cold HEPES buffer (pH 7.2@21±3° C.). The pancreatata were homogenised in 40 ml ice-cold HEPES buffer using a polytron (Brinkmann, PT10, setting 10) 4×1 second. The homogenate was centrifuged at 39,800 g for 15 min at 4° C. The supernatant was discarded and the pellet re-suspended using a Teflon-in-glass homogeniser in 20 volumes of fresh buffer and re-centrifuged as above. The final pellet was re-suspended using a Teflon-in-glass homogeniser to a tissue concentration of 1 mg.ml^-1 (original wet weight), and filtered through 500 μm pore-size Nytex mesh.
The membranes (400 μl; containing 0.375 μM PD134,308) were incubated for 150 minutes at 21±3° C. in a final volume of 0.5 ml with HEPES buffer containing [^125 I]-CCK8 (S) (50 μl; 200 pM) and competing compound. Total and non-specific binding of [^125 I]-CCK8 (S) were defined using 50 μl of buffer and 50 μl of 100 nM L-364,718 respectively. The assay was terminated by rapid filtration through pre-soaked Whatman GF/B filters using a Brandell Cell Harvester. The filters were washed (3×3 ml) with ice-cold 50 mM Tris HCl (pH 7.4 at 4° C.) and bound radioactivity was determined by counting (1 min) in a gamma counter.

Molecules are shown by their SMILES.

For `CC(=O)N1[C@H](C(=O)O)CC(=O)c2ccccc2N(Cc2ccccc2)C(=O)[C@@H]1CC12CC3CC(CC(C3)C1)C2` [Example 12, (3S,5S)-4-acetyl-3-(1-adamantyl)methyl-1-benzyl-2,7-dioxo-2,3,4,5,6,7-hexahydro-1H-1,4-benzodiazonine-5-carboxylate], the Ki in experiment [1] and in experiment [2] was 10 µM each time.

Regarding `CCC1CCN(C(=O)Nc2cccc(C)c2)CC(=O)N(Cc2ccccc2)c2ccccc21` (centres unmarked) [Example 51, 1-benzyl-7-ethyl-4-(3-methylphenyl)carbamyl-2-oxo-5,2,3,4,5,6,7-hexahydro-1H-1,4-benzodiazonine], the figures for the Ki in experiment [1] and in experiment [2] were 3.16 µM and 0.794 µM, respectively.

In the case of `COc1cccc(CN2C(=O)[C@@H](CC34CC5CC(CC(C5)C3)C4)N(C(C)=O)[C@H](C(=O)O)CC(=O)c3ccccc32)c1` [Example 13, (3R,5S)-4-acetyl-3-[(1-adamantyl)methyl]-1-(3-methoxy)benzyl-2,7-dioxo-2,3,4,5,6,7-hexahydro-1H-1,4-benzodiazonine-5-carboxylate], the Ki in experiment [1] is 2.51 µM; in experiment [2] it was 3.16 µM.

As to `COc1ccc(CN2C(=O)[C@@H](CC34CC5CC(CC(C5)C3)C4)N(C(C)=O)[C@H](C(=O)O)CC(=O)c3ccccc32)cc1` [Example 14, (3R,5S)-4-acetyl-3-[(1-adamantyl)methyl]-1-(4-methoxy)benzyl-2,7-dioxo-2,3,4,5,6,7-hexahydro-1H-1,4-benzodiazonine-5-carboxylate], the Ki in experiment [1] is 2.51 µM; in experiment [2], 3.16 µM.

In the case of `CC(C)(C)OC(=O)CN1C(=O)CN(C(=O)Oc2ccccc2)CCC(=O)c2ccccc21` [Example 43], the results for the Ki in experiment [1] and in experiment [2] were 15.8 µM and 10 µM, respectively.

As to `CC(=O)N1[C@H](CC23CC4CC(CC(C4)C2)C3)C(=O)N(Cc2ccccc2)c2ccccc2C(=O)C[C@H]1C(=O)N[C@@H](C)C(=O)O` [Example 24, (3R,5S)-4-acetyl-3-(1-adamantyl)methyl-1-benzyl-5-[(1S)-carboxy]ethylaminocarbonyl-2,7-dioxo-2,3,4,5,6,7-hexahydro-1H-1,4-benzodiazonine], in experiment [1], the “pKi (Mouse cortex)” value is reported as 6.9. Also, the “pKi (Guinea pig pancreas)” value in experiment [2] is listed as 5.0.

`CC(=O)N1[C@H](CC23CC4CC(CC(C4)C2)C3)C(=O)N(Cc2ccccc2)c2ccc(F)cc2C(=O)C[C@H]1C(=O)NCC(=O)O` (relative stereo) [Example 61, (+/-)-trans-4-acetyl-3-(1-adamantyl)methyl-1-benzyl-5-carboxymethylaminocarbonyl-2,7-dioxo-9-fluoro-2,3,4,5,6,7-hexahydro-1H-1,4-benzodiazonine]: the Ki was 0.398 µM in experiment [1] and 12.6 µM in experiment [2].

In the case of `O=C1C[C@@H](C(=O)O)N(C(=O)OCc2ccccc2)[C@H](CC23CC4CC(CC(C4)C2)C3)C(=O)N(Cc2ccccc2)c2ccccc21` [Example 20, (3R,5S)-3-(1-adamantyl)methyl-1-benzyl-4-benzyloxycarbonyl-2,7dioxo-2,3,4,5,6,7-hexahydro-1H-1,4-benzodiazonine-5-carboxylate], the Ki in experiment [1] was 3.16 µM; in experiment [2] it was 3.98 µM.

For the molecule `CC(=O)N1[C@H](CC23CC4CC(CC(C4)C2)C3)C(=O)N(Cc2ccc(F)cc2)c2ccccc2C(=O)C[C@H]1C(=O)NCC(=O)O` [Example 58, (3R,5S)-4-acetyl-3-(1-adamantyl)methyl-1-(4-fluorobenzyl)-5-carboxymethylaminocarbonyl-2,7-dioxo-2,3,4,5,6,7-hexahydro-1H-1,4-benzodiazonine], the values for the Ki in experiment [1] and in experiment [2] were 2 µM and 7.94 µM, respectively.

As to `CC(=O)N1[C@H](CC23CC4CC(CC(C4)C2)C3)C(=O)N(Cc2cccc(Cl)c2)c2ccccc2C(=O)C[C@H]1C(=O)O` [Example 15], the Ki in experiment [1] is 1.26 µM; in experiment [2] it was 1.58 µM.

Take `CC(=O)N1[C@H](CC23CC4CC(CC(C4)C2)C3)C(=O)N(C)c2ccccc2C(=O)C[C@H]1C(=O)O` [Example 21, (3R,5S)-4-acetyl-3-(1-adamantyl)methyl-1-methyl-2,7-dioxo-2;3,4,5,6,7-hexahydro-1H-1,4-benzodiazonine-5-carboxylate]: the Ki in experiment [1] is 7.94 µM; in experiment [2] it was 6.31 µM.

Consider `CC(=O)N1[C@H](CC2CCCCC2)C(=O)N(Cc2ccccc2)c2ccccc2C(=O)C[C@H]1C(=O)NCC(=O)O` [Example 40, (3R,5S)-4-acetyl-1-benzyl-5-carboxymethylaminocarbonyl-3-cyclohexylmethyl-2,7-dioxo-2,3,4,5,6,7-hexahydro-1H-1,4-benzodiazonine], for which, in experiment [1], the “pKi (Mouse cortex)” value came out at 5.4. The “pKi (Guinea pig pancreas)” value in experiment [2] is given as 4.7.

As to `CC(=O)N1[C@H](CC23CC4CC(CC(C4)C2)C3)C(=O)N(Cc2ccccc2)c2ccccc2C(=O)C[C@H]1C(=O)N[C@H](C)C(=O)O` [Example 25, (3R,5S)-4-acetyl-3-(1-adamantyl)methyl-1-benzyl-5-[(1R)-carboxy]ethylaminocarbonyl-2,7-dioxo-2,3,4,5,6,7-hexahydro-1H-1,4-benzodiazonine], the Ki was 0.398 µM in experiment [1] and 6.31 µM in experiment [2].

`O=C(O)CCC(=O)N1CCC(=O)c2ccccc2N(Cc2ccccc2)C(=O)C1CC12CC3CC(CC(C3)C1)C2` (racemic) [Example 33, (R/S)-3-(1-adamantyl)methyl-1-benzyl-4-(2-carboxy)ethylcarbonyl-2,7-dioxo-2,3,4,5,6,7-hexahydro-1H-1,4-benzodiazonine]: the results for the Ki in experiment [1] and in experiment [2] were 10 µM and 6.31 µM, respectively.

With `CC(=O)N1[C@H](CC23CC4CC(CC(C4)C2)C3)C(=O)N(Cc2ccccc2Cl)c2ccccc2C(=O)C[C@H]1C(=O)NCC(=O)O` [Example 63, (3R,5S)-4-acetyl-3-(1-adamantyl)methyl-1-(2-chlorobenzyl)-5-carboxymethylaminocarbonyl-2,7-dioxo-2,3,4,5,6,7-hexahydro-1H-1,4-benzodiazonine], the values for the Ki in experiment [1] and in experiment [2] were 0.1 µM and 10 µM, respectively.

In the case of `Cc1cccc(NC(=O)N2CCC(C)c3ccccc3N(Cc3ccccc3)C(=O)C2)c1` (centres unmarked) [Example 10, 1-benzyl-7-methyl-4-(3-methylphenyl)carbamyl-2-oxo-2,3,4,5,6,7-hexahydro-1H-1,4-benzodiazonine], the values for the Ki in experiment [1] and in experiment [2] were 2.51 µM and 0.316 µM, respectively.

(Values after US6057311A, “Benzodiazonine derivatives binding to cholecystokinin or gastrin receptors” (James Black Foundation Limited, priority 1996, dated 2000).)
